Results: patent US20020055528A1, “Artemisinin analogs having antimalarial, antiproliferative, and antitumor activities and chemoselective methods of making the same” (priority 1999, published 2002)

Tests used:
Format in all cases: cell-based
TK-10 = experiment: NCI 60 cell line screen (SRB), Renal Cancer
UACC-62 = experiment: NCI 60 cell line screen (SRB), Melanoma
RPMI-8226 = experiment: NCI 60 cell line screen (SRB), Leukemia
SNB-75 = experiment: NCI 60 cell line screen (SRB), CNS Cancer
SW-620 = experiment: NCI 60 cell line screen (SRB), Colon Cancer
OVCAR-3 = experiment: NCI 60 cell line screen (SRB), Ovarian Cancer; conditions: PG=0
RXF 393 = experiment: NCI 60 cell line screen (SRB), Renal Cancer
U251 = experiment: NCI 60 cell line screen (SRB), CNS Cancer
CAKI-1 = experiment: NCI 60 cell line screen (SRB), Renal Cancer
HOP-62 = experiment: NCI 60 cell line screen (SRB), Non-Small Cell Lung Cancer
KM12 = experiment: NCI 60 cell line screen (SRB), Colon Cancer
BT-549 = experiment: NCI 60 cell line screen (SRB), Breast Cancer
COLO 205 = experiment: NCI 60 cell line screen (SRB), Colon Cancer
MDA-MB231/ATCC = experiment: NCI 60 cell line screen (SRB), Breast Cancer; conditions: MDA- (first line of MDA-MB231/ATCC)
SR = experiment: NCI 60 cell line screen (SRB), Leukemia
OVCAR-8 = experiment: NCI 60 cell line screen (SRB), Ovarian Cancer
HCC-2998 = experiment: NCI 60 cell line screen (SRB), Colon Cancer
NCI-H460 = experiment: NCI 60 cell line screen (SRB), Non-Small Cell Lung Cancer
ACHN = experiment: NCI 60 cell line screen (SRB), Renal Cancer
SNB-19 = experiment: NCI 60 cell line screen (SRB), CNS Cancer
[1] = test system: MB231/ATCC (second line of the wrapped label, with values of its own); experiment: NCI 60 cell line screen (SRB), Breast Cancer
SK-MEL-5 = experiment: NCI 60 cell line screen (SRB), Melanoma
MCF7 = experiment: NCI 60 cell line screen (SRB), Breast Cancer
NCI-H322M = experiment: NCI 60 cell line screen (SRB), Non-Small Cell Lung Cancer
NCI-H522 = experiment: as above
EKVX = experiment: as above
786-0 = experiment: NCI 60 cell line screen (SRB), Renal Cancer
LOX IMVI = experiment: NCI 60 cell line screen (SRB), Melanoma
SF-295 = experiment: NCI 60 cell line screen (SRB), CNS Cancer
NCI-H226 = experiment: NCI 60 cell line screen (SRB), Non-Small Cell Lung Cancer
IGROVI = experiment: NCI 60 cell line screen (SRB), Ovarian Cancer
OVCAR-5 = experiment: NCI 60 cell line screen (SRB), Ovarian Cancer
MDA-MB-435 = experiment: NCI 60 cell line screen (SRB), Breast Cancer
MALME-3M = experiment: NCI 60 cell line screen (SRB), Melanoma
HT29 = experiment: NCI 60 cell line screen (SRB), Colon Cancer
SK-MEL2 = experiment: NCI 60 cell line screen (SRB), Melanoma

## CC1=C(C=Cc2cccc(C=CC3=C(C)C4CCC(C)C5CCC6(C)OOC45C(O3)O6)c2)OC2OC3(C)CCC4C(C)CCC1C24OO3 (centres unmarked) [VII-f]
TK-10; PG=0
  Log10TGI: >−4.00 log10M
TK-10; PG=+50
  Log10GI50: −5.44 log10M
TK-10; Table IV (LC50, PG=−50)
  Log10GI50: >−4.00 log10M
UACC-62; PG=0
  Log10TGI: >−4.00 log10M
UACC-62; PG=+50
  Log10GI50: −4.90 log10M
UACC-62; Table IV (LC50, PG=−50)
  Log10GI50: >−4.00 log10M
RPMI-8226; PG=0
  Log10TGI: −6.21 log10M
RPMI-8226; PG=+50
  Log10GI50: −6.21 log10M
RPMI-8226; Table IV (LC50, PG=−50)
  Log10GI50: >−4.00 log10M
SNB-75; PG=+50
  Log10 GI50 (PG=+50) or LC50 (PG=−50): −5.84 log10M
SNB-75; Table IV (LC50, PG=−50)
  Log10 GI50 (PG=+50) or LC50 (PG=−50): >−4.00 log10M
SW-620; PG=0
  Log10TGI: >−4.00 log10M
SW-620; PG=+50
  Log10GI50: −5.90 log10M
OVCAR-3
  Log10TGI: >−4.00 log10M
RXF 393; PG=0
  Log10TGI: >−4.00 log10M
RXF 393; PG=+50
  Log10GI50: −5.91 log10M
RXF 393; Table IV (LC50, PG=−50)
  Log10GI50: >−4.00 log10M
U251; PG=0
  Log10TGI: >−4.00 log10M
U251; PG=+50
  Log10GI50: −6.03 log10M
U251; Table IV (LC50, PG=−50)
  Log10GI50: >−4.00 log10M
CAKI-1; PG=0
  Log10TGI: >−4.00 log10M
CAKI-1; PG=+50
  Log10GI50: −5.17 log10M
CAKI-1; Table IV (LC50, PG=−50)
  Log10GI50: >−4.00 log10M
HOP-62; PG=0
  Log10TGI: >−4.00 log10M
HOP-62; PG=+50
  Log10GI50: −5.77 log10M
HOP-62; Table IV (LC50, PG=−50)
  Log10GI50: >−4.00 log10M
KM12; PG=0
  Log10TGI: >−4.00 log10M
KM12; PG=+50
  Log10GI50: −6.23 log10M
KM12; Table IV (LC50, PG=−50)
  Log10GI50: >−4.00 log10M
BT-549; PG=+50
  Log10GI50: −6.50 log10M
BT-549; Table IV (LC50, PG=−50)
  Log10GI50: >−4.00 log10M
COLO 205; PG=0
  Log10TGI: −5.93 log10M
COLO 205; PG=+50
  Log10GI50: −6.61 log10M
COLO 205; Table IV (LC50, PG=−50)
  Log10GI50: −5.30 log10M
MDA-MB231/ATCC; PG=0
  Log10TGI: −4.70 log10M
MDA-MB231/ATCC; PG=+50
  Log10 GI50 or LC50 (per conditions): −5.67 log10M
MDA-MB231/ATCC; Table IV (LC50, PG=−50)
  Log10 GI50 or LC50 (per conditions): >−4.00 log10M
SR; PG=0
  Log10TGI: −6.19 log10M
SR; PG=+50
  Log10GI50: −6.19 log10M
SR; Table IV (LC50, PG=−50)
  Log10GI50: >−4.00 log10M
OVCAR-8; PG=0
  Log10TGI: −4.21 log10M
OVCAR-8; PG=+50
  Log10GI50: −5.57 log10M
OVCAR-8; Table IV (LC50, PG=−50)
  Log10GI50: >−4.00 log10M
HCC-2998; PG=0
  Log10TGI: >−4.00 log10M
HCC-2998; PG=+50
  Log10GI50: −5.59 log10M
NCI-H460; PG=0
  Log10TGI: >−4.00 log10M
NCI-H460; PG=+50
  Log10 GI50 or Log10 LC50: −6.03 log10M
ACHN; PG=0
  Log10TGI: >−4.00 log10M
ACHN; PG=+50
  Log10 GI50 or LC50 (see conditions): −5.71 log10M
ACHN; Table IV (LC50, PG=−50)
  Log10 GI50 or LC50 (see conditions): >−4.00 log10M
SNB-19; PG=0
  Log10TGI: >−4.33 log10M
SNB-19; PG=+50
  Log10GI50 or Log10LC50 (see condition): −5.85 log10M
SNB-19; Table IV (LC50, PG=−50)
  Log10GI50 or Log10LC50 (see condition): >−4.33 log10M
[1]; PG=+50
  Log10GI50: −6.13 log10M
[1]; Table IV (LC50, PG=−50)
  Log10GI50: >−4.00 log10M
SK-MEL-5; PG=0
  Log10TGI: −4.93 log10M
SK-MEL-5; PG=+50
  Log10 GI50 or LC50: −5.80 log10M
SK-MEL-5; Table IV (LC50, PG=−50)
  Log10 GI50 or LC50: >−4.00 log10M
MCF7; PG=0
  Log10TGI: >−4.00 log10M
MCF7; PG=+50
  Log10GI50: −6.06 log10M
MCF7; Table IV (LC50, PG=−50)
  Log10GI50: >−4.00 log10M
NCI-H322M; PG=0
  Log10TGI: −4.39 log10M
NCI-H322M; PG=+50
  Log10GI50: −6.05 log10M
NCI-H522; PG=0
  Log10TGI: >−4.00 log10M
NCI-H522; PG=+50
  Log10GI50: −6.07 log10M
NCI-H522; Table IV (LC50, PG=−50)
  Log10GI50: >−4.00 log10M
EKVX; PG=0
  Log10TGI: −4.58 log10M
EKVX; PG=+50
  Log10GI50: −6.21 log10M
EKVX; Table IV (LC50, PG=−50)
  Log10GI50: >−4.00 log10M
786-0; PG=0
  Log10TGI: >−4.00 log10M
786-0; PG=+50
  Log10GI50: −5.40 log10M
786-0; Table IV (LC50, PG=−50)
  Log10GI50: >−4.00 log10M
LOX IMVI; PG=0
  Log10TGI: >−4.00 log10M
LOX IMVI; PG=+50
  Log10GI50: −5.79 log10M
LOX IMVI; Table IV (LC50, PG=−50)
  Log10GI50: >−4.00 log10M
SF-295; PG=0
  Log10TGI: >−4.00 log10M
SF-295; PG=+50
  Log10GI50: −5.25 log10M
NCI-H226; PG=0
  Log10TGI: >−4.00 log10M
NCI-H226; PG=+50
  Log10GI50: −4.61 log10M
NCI-H226; Table IV (LC50, PG=−50)
  Log10GI50: >−4.00 log10M
IGROVI; PG=0
  Log10TGI: >−4.00 log10M
IGROVI; PG=+50
  Log10GI50: −4.55 log10M
IGROVI; Table IV (LC50, PG=−50)
  Log10GI50: >−4.00 log10M
OVCAR-5; PG=0
  Log10TGI: >−4.00 log10M
OVCAR-5; PG=+50
  Log10GI50: −6.04 log10M
OVCAR-5; Table IV (LC50, PG=−50)
  Log10GI50: >−4.00 log10M
MDA-MB-435; MDA-MB-435, PG=0
  Log10TGI: >−4.00 log10M
MDA-MB-435; MDA-MB−435, PG=+50
  Log10GI50: −5.86 log10M
MDA-MB-435; Table IV (LC50, PG=−50), MDA-MB-435
  Log10GI50: >−4.00 log10M
MALME-3M; PG=0
  Log10TGI: −4.82 log10M
MALME-3M; PG=+50
  Log10GI50: −5.65 log10M
MALME-3M; Table IV (LC50, PG=−50)
  Log10GI50: >−4.00 log10M
HT29; PG=0
  Log10TGI: >−4.00 log10M
HT29; PG=+50
  Log10GI50: −5.90 log10M
HT29; Table IV (LC50, PG=−50)
  Log10GI50: >−4.00 log10M
SK-MEL2; PG=0
  Log10TGI: −4.26 log10M
SK-MEL2; PG=+50
  Log10 GI50 or LC50 (per conditions): −5.85 log10M
SK-MEL2; Table IV (LC50, PG=−50)
  Log10 GI50 or LC50 (per conditions): >−4.00 log10M
